In US8324263B2, “Microbiocidally active carboxamides” (Syngenta Crop Protection, LLC, priority 2007, dated 2012):

Tests used:
Botrytis cinerea = assay: Action against Botrytis cinerea - fungal growth assay; format: cell-based; conditions: 0.002% active ingredient, PDB broth, 24° C., photometric after 3-4 days
Protocol: Conidia of the fungus from cryogenic storage are directly mixed into nutrient broth (PDB potato dextrose broth). After placing a (DMSO) solution of the test compounds (0.002% active ingredient) into a microtiter plate (96-well format) the nutrient broth containing the fungal spores is added.

Row | melting point | SMILES | fungal growth inhibition (Botrytis cinerea) | inhibition at 0.002 % strength (Botrytis cinerea; Botrytis cinerea)
1 | 119 to 121 °C | Cc1cc(Br)cc(C)c1OCC(C)NC(=O)c1cn(C)nc1C(F)F (centres unmarked) [Compound 1.168, 3-difluoromethyl-1-methyl-1H-pyrazole-4-carboxylic acid [2-(4-bromo-2,6-dimethyl-phenoxy)-1-methyl-ethyl]-amide] |  | 
2 | 122 to 124 °C | CC(COc1c(Br)cc(Br)cc1Br)NC(=O)c1cn(C)nc1C(F)F (centres unmarked) [Compound 1.193, 3-difluoromethyl-1-methyl-1H-pyrazole-4-carboxylic acid [1-methyl-2-(2,4,6-tribromo-phenoxy)-ethyl]-amide] |  | 
3 |  | Cn1cc(C(=O)NC2(COc3ccc(Cl)cc3)CC2)c(C(F)F)n1 [Compound 1.221] | 50% | 
4 | 115 to 118 °C | CC(COc1ncc(C(F)(F)F)cc1Cl)NC(=O)c1cn(C)nc1C(F)F (centres unmarked) [Compound 1.239, 3-difluoromethyl-1-methyl-1H-pyrazole-4-carboxylic acid [2-(3-chloro-5-trifluoromethyl-pyridin-2-yloxy)-1-methyl-ethyl]-amide] |  | 50%
